Laboratory results taken from US12534583B2, “Compositions and polymer films” (Fujifilm Manufacturing Europe B.V., priority 2020, dated 2026).
Where a name gives a salt, the structure may show the parent alone.

Experiment: Solubility in water determined visually or by UV-spectrometry
Conditions: 40° C. overnight, M = Li
Method: The solubility of the compounds of Formula (I) was determined visually or by UV-spectrometry. For each compound of Formula (I), three solutions were prepared: one solution at 30 wt %, one solution at 60 wt %, and one solution at 70 wt % containing a 1:1 molar ratio of the compound of Formula (I) with cross-linker Li-BVBSI. 500 ppm 40H-TEMPO was included in all three solutions to prevent premature polymerisation. The solutions were kept in a water bath of 40° C. overnight and centrifuged prior inspection. UV spectra were recorded in a Cary™ 100 UV-visible spectrophotometer from Agilent Technologies using a 1 mm path length quartz cuvette.

C=Cc1ccc(S(=O)(=O)[O-])cc1.[Li+] [LiSS, Styrene sulphonate, lithium salt, reference compound]
Solubility in water at 40° C.: 40 wt %

C=Cc1ccc(S(=O)(=O)NS(N)(=O)=O)cc1 [MM-A, Benzenesulphonamide, 4-ethenyl-N-(aminosulphonyl)-, lithium salt]
Solubility in water at 40° C.: >60 wt %

C=Cc1ccc(S(=O)(=O)NS(C)(=O)=O)cc1 [MM-M, Benzenesulphonamide, 4-ethenyl-N-(methylsulphonyl)-, lithium salt]
Solubility in water at 40° C.: >60 wt %

C=Cc1ccc(S(=O)(=O)NS(=O)(=O)c2ccccc2)cc1 [MM-P, Benzenesulphonamide, 4-ethenyl-N-(phenylsulphonyl)-, lithium salt]
Solubility in water at 40° C.: >60 wt %

C=Cc1ccc(S(=O)(=O)NS(=O)(=O)C(F)(F)F)cc1 [MM-Tf, Benzenesulphonamide, 4-ethenyl-N-[(trifluoromethyl)sulphonyl]-, lithium salt, reference compound]
Solubility in water at 40° C.: >60 wt %
